Reference: US20240197682A1, “METHOD FOR TREATING NEUROLOGICAL DISEASES USING SUPRAMOLECULE POLYMER THERAPEUTICS” (The Regents of the University of California, priority 2022, published 2024)
Like-named read-outs stand apart in the source and are kept apart here.

Assays:
[1] = target: T1, YFP-tagged full length 0N4R-Tau P301S aggregates seeded by 416-AD11A lysate (T24 cells) (Homo sapiens, UniProt P10636, P618S); experiment: Tau-AD high throughput screening (counter screen) in T24 cells; type: cell-based; conditions: T24 cells transfected with 416-AD11A lysate
T1 construct: C-terminally YFP-tagged full length 0N4R-Tau carrying a P301S mutation; expressed in transfected cells
Protocol: A fragment of the Middle Tempral Gyrus (MTG) from Alzheimer's Disease (AD) patient 2217 was resuspended in 9 volumes of PBS (ml/g of brain) and homogenized 3×12 seconds using a probe homogenizer (Thomas Scientific) with disposable Omni Tip plastic homogenizing probes (Thomas Scinetific Cat No 3409Y77) to generate a 10% brain homogenate (10% AD11-BH). The 10% AD11-BH was clarified of insoluble debris by centrifugation at 800×g for 5 minutes. The resulting supernatant was collected and the protein concentration of this clarified BH (AD11-CBH) was determined by bicinchoninic acid assay (BCA) (Thermo Fisher Cat No. 23227). HEK293 cells stably expressing a C-terminally Clover-tagged truncated 4R-Tau^243-382 transgene containing the P301L and V337M mutations and a C-terminally Ruby-tagged truncated 3R-Tau^243-382 transgene containing the L266V and V337M mutations (128/139 cells) were transfected with the AD11-CBH using lipofectamine 2000 (LF2K) (Thermo Fisher Cat No. 11668500). Briefly, 0.32 μl of LF2K were diluted in 5 μl Opti-MEM (Thermo Scientific Cat No 31985070) per well of a 384-well plate and incubated for 5 min at room temperature (RT). This mixture was added to 0.32 μg of AD11-CBH diluted in 5 μl of PBS per well of a 384-well plate and vortex briefly. The transfection mixture was incubated at room temperature for 90 min. The transfection complexes were subsequently added to a single well of a 384-well plate containing 3500 128/139 cells. After 3 days the cells were harvested, counted and plated at a density of 1 cell/well in a 96-well plate. A clonal cell line containing Clover and Ruby positive Tau aggregates was selected and termed 416-AD11A cells. Following the expansion of these 416-AD11A cells, a cell lysate was prepared by freeze/thaw. The cells from a confluent T175 flask were harvested in 1 ml of PBS containing 1× protease inhibitor cocktail by scraping. The cell suspension was subjected to 4 cycles of freezing in liquid nitrogen for 5 minutes followed by thawing at 37° C. for 5 minutes. The resulting cell lysate was centrifuged at 2000 RPM for 10 minutes to remove the cell debris and the protein concentration of the resulting 416-AD11A lysate was determined by BCA assay and aliquots frozen for future use.
HEK293 cells stably expressing C-terminally YFP-tagged full length 0N4R-Tau carrying a P301S mutation (T24 cells) are plated at a density of 4000 cells per well of a 384-well black walled, clear bottom plate (Greiner Cat No 5678-1091Q) in 60 μl of complete DMEM (DMEM (Corning Cat No 10-013-CV), 10% FBS (VWR Cat No 97068-085, 0.5% Penicilin/streptomycin (Gibco Cat No 15140-122)) containing 0.1 μg/ml Hoechst Dye (Thermo Scientific Cat No H3570). Transfection complexes are prepared by diluting 0.15 μg of 416-AD11A lysate or HEK lysate in 5 μl of PBS per well to be transfected and 0.15 μl of Lipofectamine 2000 (LF2K) (ThermoFisher Cat No 11668500) in 5 μl of Opti-MEM per well to be transfected in separate tubes. The pre-diluted 416-AD11A or HEK lysates and LF2K are subsequently mixed and allowed to incubate for 90 minutes at RT. A 10 μl aliquot of the 416-AD11A or HEK transfection complexes is added to the appropriate wells of the 384-well plate containing the T24 cells using the Bravo liquid handling platform (Agilent). Wells A23-P24 of the 384-well plate are transfected with HEK lysate to act as a reference point for spontaneous aggregation of 0N4R^P301S and for transfection related toxicity. The dilution of test compounds is performed using the Bravo liquid handling platform (Agilent). The control is DMSO in the absence of any test compound. Briefly, 1 μl of each test compound (5 mM stock) in the 384-well test plate was transferred to a 384-well plate (Greiner Cat No 781280) containing 61.5 μl of complete DMEM to generate a working stock of compounds at 80 μM. […]

[2] = Parallel Artificial Membrane Permeability Assay (PAMPA); type: in vitro ADME; conditions: for Papp at 4 hr, 200 uM: PAMPA, read-out: PAMPA: P_app; for PAMPA: P_app: 200 uM test compound, 4 hr
Protocol: 5 uL of 1% lecithin (VWR 0579) dissolved in n-dodecane (Sigma Aldrich D221104) was applied to each well of a MultiScreen IP PAMPA filter plate (Millipore MAIPSWU10) and allowed to equilibrate for 5 minutes. 300 uL of PBS was added to the acceptor plate and 150 uL of 200 uM test compound dissolved in PBS and 30% ethanol was added to the donor wells before incubating the donor plate in the acceptor plate for 4 hr at 500 rpm. 100 uL was sampled from the donor and acceptor wells and the concentrations were measured by liquid chromatography-mass spectrometry (SCIEX 4500) or UV-VIS plate reader (BMG).

T1 sequence (P10636 1-383 isoform P10636-6 P243S): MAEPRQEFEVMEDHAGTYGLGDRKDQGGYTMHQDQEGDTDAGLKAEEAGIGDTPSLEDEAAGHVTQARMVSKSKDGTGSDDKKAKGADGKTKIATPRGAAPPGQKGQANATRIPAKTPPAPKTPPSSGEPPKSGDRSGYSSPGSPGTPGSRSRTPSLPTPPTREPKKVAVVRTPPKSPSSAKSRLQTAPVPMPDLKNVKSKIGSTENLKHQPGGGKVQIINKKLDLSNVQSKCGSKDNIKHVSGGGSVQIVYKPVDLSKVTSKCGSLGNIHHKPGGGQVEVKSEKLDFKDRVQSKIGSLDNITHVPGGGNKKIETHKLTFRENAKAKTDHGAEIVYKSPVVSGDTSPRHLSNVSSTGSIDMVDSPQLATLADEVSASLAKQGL

Row | AD Tau Aggregates (% control) [1] [% control] | Papp at 4 hr, 200 uM ([2]; pH 5.0, 200 uM test compound) [×10⁻⁶ cm/s] | PAMPA: P_app ([2]; pH 7.4) [×10e−6 cm/sec] | SMILES | other results
1 | 92 |  |  | CNc1nc(=O)n(-c2nc(-c3cccc(C)c3)oc2-c2ccc(F)c(F)c2)cc1F.Cl [Compound 133, 1-(5-(3,4-difluorophenyl)-2-(m-tolyl)oxazol-4-yl)-5-fluoro-4-(methylamino)pyrimidin-2(1H)-one hydrochloride] | 
2 | 100 |  |  | CNC(=O)c1ncc2c(-c3cccc4c3OC(F)(F)O4)nn(Cc3ccccc3)c2n1 [Compound 254] | 
3 | 99 |  |  | CNC(=O)c1ncc2c(-c3ccc(F)cc3)nn(Cc3ccnc(F)c3)c2n1 [Compound 259] | 
4 |  |  | >50 | CNC(=O)c1ncc2c(-c3ccc(F)cc3)nn(Cc3ccccc3)c2n1 [Compound 250] | PAMPA: P_app ([2]; pH 5.0): >50 ×10e−6 cm/sec
5 |  |  | >50 | CCn1nc(-c2ccccc2)c2cnc(NC(C)=O)nc21 [Compound 277] | PAMPA: P_app ([2]; pH 5.0): >50 ×10e−6 cm/sec
6 |  | 46.7 |  | CC(=O)Nc1ncc2c(-c3ccccc3)nn(Cc3cccnc3)c2n1 [Compound 42, N-(3-phenyl-1-(pyridin-3-ylmethyl)-1H-pyrazolo[3,4-d]pyrimidin-6-yl)acetamide] | Papp at 4 hr, 200 uM ([2]; pH 7.4, 200 uM test compound): 37 ×10⁻⁶ cm/s
7 |  | 24.4 |  | COC(=O)c1cc2c(-c3ccccc3)nn(-c3ccccc3)c2[nH]1 [Compound 34, methyl 1,3-diphenyl-1,6-dihydropyrrolo[2,3-c]pyrazole-5-carboxylate] | Papp at 4 hr, 200 uM ([2]; pH 7.4, 200 uM test compound): 14.3 ×10⁻⁶ cm/s
8 |  | > 50 | >50.0 | CNC(=O)c1ncc2c(-c3ccnc(C(C)(F)F)n3)nn(-c3ccc(Cl)cc3)c2n1 [Compound 22, 1-(4-chlorophenyl)-3-(2-(1,1-difluoroethyl)pyrimidin-4-yl)-N-methyl-1H-pyrazolo[3,4-d]pyrimidine-6-carboxamide] | 
9 |  | > 50 | >50.0 | Cc1cn(-c2nc(-c3ccccc3)oc2-c2ccccc2)c(=O)nc1OCCO [Compound 77, 1-(2,5-diphenyl-1,3-oxazol-4-yl)-4-(2-hydroxyethoxy)-5-methyl-1,2-dihydropyrimidin-2-one] | 
10 |  | 36 |  | O=c1nc2c(ccn2C2CC2)cn1-c1nc(-c2ccc(F)cc2)oc1-c1ccccc1 [Compound 213, 7-cyclopropyl-3-(2-(4-fluorophenyl)-5-phenyloxazol-4-yl)-3,7-dihydro-2H-pyrrolo[2,3-d]pyrimidin-2-one] | Papp at 4 hr, 200 uM ([2]; pH 7.4, 200 uM test compound): 48 ×10⁻⁶ cm/s
11 |  |  | 26.4 | CC(=O)Nc1ncc2c(-c3ccccc3)nn(Cc3ccccc3)c2n1 [Compound 264] | PAMPA: P_app ([2]; pH 5.0): 27.1 ×10e−6 cm/sec

Continued, compound first:

Row | SMILES | AD Tau Aggregates (% control) [1] [% control] | Papp at 4 hr, 200 uM ([2]; pH 5.0, 200 uM test compound) [×10⁻⁶ cm/s] | PAMPA: P_app ([2]; pH 7.4) [×10e−6 cm/sec] | other results
12 | CNC(=O)c1ncc2c(-c3ccc(F)cc3)nn(C3CCc4ccc(F)cc43)c2n1 (stereo not drawn) [Compound 257, 1-(6-fluoro-2,3-dihydro-1H-inden-1-yl)-3-(4-fluorophenyl)-N-methyl-1H-pyrazolo[3,4-d]pyrimidine-6-carboxamide] | 100 |  |  | 
13 | CNC(=O)c1ncc2c(-c3ccccc3)cn(-c3ccccc3)c2n1 [Compound 291, N-methyl-5,7-diphenyl-7H-pyrrolo[2,3-d]pyrimidine-2-carboxamide] | 110 |  |  | 
14 | CNc1nc(=O)n(-c2nc(-c3ccc(C)s3)oc2-c2ccc(Cl)c(F)c2)cc1F [Compound 132, 1-(5-(4-chloro-3-fluorophenyl)-2-(5-methylthiophen-2-yl)oxazol-4-yl)-5-fluoro-4-(methylamino)pyrimidin-2(1H)-one] | 95 |  |  | 
15 | CNC(=O)c1ncc2c(-c3ccc(F)cc3)nn(Cc3ccc(F)cc3)c2n1 [Compound 261] | 87 |  |  | 
16 | CNC(=O)c1ncc2c(N3CCCC3)nn(-c3ccc(F)cc3)c2n1 [Compound 247, 1-(4-fluorophenyl)-N-methyl-3-(pyrrolidin-1-yl)-1H-pyrazolo[3,4-d]pyrimidine-6-carboxamide] | 120 |  |  | 
17 | CNc1ncc2c(-c3ccccc3)nn(-c3ccccc3)c2n1 [Compound 286, N-methyl-1,3-diphenyl-1H-pyrazolo[3,4-d]pyrimidin-6-amine] | 100 |  |  | 
18 | CNC(=O)c1cnc2c(-c3cc(F)cc(F)c3)nn(Cc3ccccc3)c2n1 [Compound 262, 1-benzyl-3-(3,5-difluorophenyl)-N-methyl-1H-pyrazolo[3,4-b]pyrazine-6-carboxamide] |  | 1.2 |  | Papp at 4 hr, 200 uM ([2]; pH 7.4, 200 uM test compound): 2 ×10⁻⁶ cm/s
19 | O=c1nc2c(ccn2C2CC2)cn1-c1nc(-c2ccnc(C3CC3)n2)oc1-c1ccc(F)cc1 [Compound 216, 7-cyclopropyl-3-[2-(2-cyclopropylpyrimidin-4-yl)-5-(4-fluorophenyl)-1,3-oxazol-4-yl]-2H,3H,7H-pyrrolo[2,3-d]pyrimidin-2-one] |  |  |  | Papp at 4 hr, 200 uM ([2]; pH 7.4, 200 uM test compound): 1.63 ×10⁻⁶ cm/s
20 | CNC(=O)c1cc2c(-c3ccccc3)nn(-c3ccc(F)cc3)c2o1 [Compound 292] |  |  | 13.5 | PAMPA: P_app ([2]; pH 5.0): 7.9 ×10e−6 cm/sec
21 | COc1nccc2cc(-c3nc(-n4ccc5cccnc5c4=O)c(-c4ccc(C(F)(F)F)cc4)o3)ccc12 [Compound 124, 7-(2-(1-methoxyisoquinolin-6-yl)-5-(4-(trifluoromethyl)phenyl)oxazol-4-yl)-1,7-naphthyridin-8(7H)-one] |  |  |  | Papp at 4 hr, 200 uM ([2]; pH 7.4, 200 uM test compound): 5.82 ×10⁻⁶ cm/s
22 | CNC(=O)c1cc2c(C3=CCCC3)nn(-c3ccccc3)c2s1 [Compound 31, 3-(cyclopent-1-en-1-yl)-N-methyl-1-phenyl-1H-thieno[2,3-c]pyrazole-5-carboxamide] |  | 14.9 |  | Papp at 4 hr, 200 uM ([2]; pH 7.4, 200 uM test compound): 16.7 ×10⁻⁶ cm/s
23 | c1ccc(Cn2nc(-c3ccccc3)c3cnc(-c4cnn[nH]4)nc32)cc1 [Compound 284, 1-benzyl-3-phenyl-6-(1H-1,2,3-triazol-5-yl)-1H-pyrazolo[3,4-d]pyrimidine] |  | > 50 | >50 | 
24 | CC(=O)Nc1ncc2c(-c3ccccc3)nn(Cc3ccccn3)c2n1 [Compound 278] |  |  | >50 | PAMPA: P_app ([2]; pH 5.0): >50 ×10e−6 cm/sec
25 | CCC(=O)Nc1ncc2c(-c3ccccc3)nn(-c3ccccc3)c2n1 [Compound 273] |  |  | 3.6 | PAMPA: P_app ([2]; pH 5.0): 2.8 ×10e−6 cm/sec
